Data on one compound can be found in ChEMBL document CHEMBL3124770, “Rugulactone derivatives act as inhibitors of NF-κB activation and modulates the transcription of NF-κB dependent genes in MDA-MB-231cells” (Bioorg Med Chem Lett, 2014).

The source made the active and inactive calls. The rule behind the calls is not given here.

In test [1] the test system is MDA-MB-231. Put plainly: Induction of apoptosis in estrogen receptor-negative human MDA-MB-231 cells assessed as increase in Rb cleavage at 2 uM after 24 hrs by Western blotting analysis. Format: functional, cell-based. On the technique in general: Immunoblotting shows a protein as a band on a membrane.
Test [2] has as its system MDA-MB-231. Put plainly: Cell cycle arrest in estrogen receptor-negative human MDA-MB-231 cells assessed as accumulation at G1 phase at 2 uM after 24 hrs by Propidium iodide staining-based flow cytometric analysis (reference value: 54.66 +/- 2.51%). Format: functional. For orientation: In flow cytometry, cells or beads pass a laser one at a time.
The test system of test [3] is MDA-MB-231. The test can be described thus: Induction of apoptosis in estrogen receptor-negative human MDA-MB-231 cells assessed as increase in PARP cleavage at 2 uM after 24 hrs by Western blotting analysis. Format: functional, cell-based.
Test [4] concerns MDA-MB-231. Put plainly: Inhibition of NFkappaB activity in estrogen receptor-negative human MDA-MB-231 cells assessed as retention of NFKappaB/Rel A in cytoplasm at 2 uM after 24 hrs by DAPI/PI staining-based confocal microscopy. The class given is cell-based.
Test [5] deals with MDA-MB-231. Put plainly: Cytotoxicity against estrogen receptor-negative human MDA-MB-231 cells assessed as cell viability after 72 hrs by MTT assay. Format: functional, cell-based. To be noted: MDA-MB-231, 72 h. (In general: Tetrazolium assays rely on reduction of a dye to a coloured formazan, in cell work by metabolically active cells.)
Test [6] has as its system MDA-MB-231. The test can be described thus: Cell cycle arrest in estrogen receptor-negative human MDA-MB-231 cells assessed as accumulation at S phase at 2 uM after 24 hrs by Propidium iodide staining-based flow cytometric analysis (reference value: 19 +/- 1%). Format: functional.
The subject of test [7] is MDA-MB-231. The test can be described thus: Cell cycle arrest in estrogen receptor-negative human MDA-MB-231 cells assessed as accumulation at G2/M phase at 2 uM after 24 hrs by Propidium iodide staining-based flow cytometric analysis (reference value: 26.33 +/- 3.05%). The class given is functional.
Test [8] concerns MDA-MB-231. Put plainly: Inhibition of NFkappaB activity in estrogen receptor-negative human MDA-MB-231 cells assessed as reduction of cyclin D1 expression at 2 uM after 24 hrs by Western blotting analysis. The class given is cell-based.
Test [9] relates to MDA-MB-231. The test can be described thus: Inhibition of NFkappaB activity in estrogen receptor-negative human MDA-MB-231 cells assessed as reduction of p65 expression at 2 uM after 24 hrs by Western blotting analysis. Format: cell-based.
Test [10] has as its system MDA-MB-231. Put plainly: Reduction in HDAC-8 nuclear expression in estrogen receptor-negative human MDA-MB-231 cells at 2 uM after 24 hrs by Western blotting analysis. The class given is functional, cell-based.
Test [11] has as its system MDA-MB-231. The test can be described thus: Effect on p21 gene expression in estrogen receptor-negative human MDA-MB-231 cells at 2 uM after 24 hrs by luciferase reporter gene assay. The class given is functional, cell-based.
Test [12] deals with MDA-MB-231. The test can be described thus: Inhibition of NFkappaB activity in estrogen receptor-negative human MDA-MB-231 cells at 2 uM after 24 hrs by SEAP reporter assay. The class given is cell-based.
Test [13] concerns MCF7. Put plainly: Cytotoxicity against estrogen receptor-positive human MCF7 cells assessed as cell viability after 72 hrs by MTT assay. Format: functional, cell-based. The settings on record: MCF7, 72 h.
Test [14] relates to MDA-MB-231. Put plainly: Inhibition of NFkappaB activity in estrogen receptor-negative human MDA-MB-231 cells assessed as inhibition of cyclin D1 promoter activation at 2 uM by chromatin immunoprecipitation assay. The class given is cell-based.
The test system of test [15] is MDA-MB-231. The test can be described thus: Cell cycle arrest in estrogen receptor-negative human MDA-MB-231 cells assessed as decrease in Cyclin E expression at 2 uM after 24 hrs by Western blotting analysis. Format: functional, cell-based.
For test [16], the system named is MDA-MB-231. The test can be described thus: Inhibition of NFkappaB activity in estrogen receptor-negative human MDA-MB-231 cells assessed as cytoplasmic localization of p65 at 2 uM after 24 hrs by ELISA. The class given is cell-based.
Test [17] has as its system MCF7. The test can be described thus: Inhibition of NFkappaB activity in estrogen receptor-positive human MCF7 cells at 2 uM after 24 hrs by SEAP reporter assay. The class given is cell-based.
Test [18] has as its system MDA-MB-231. The test can be described thus: Inhibition of NFkappaB activity in estrogen receptor-negative human MDA-MB-231 cells assessed as upregulation of p27 gene expression at 2 uM after 24 hrs by luciferase reporter gene assay relative to control. The class given is cell-based.
For test [19], the system named is MDA-MB-231. Put plainly: Inhibition of NFkappaB activity in estrogen receptor-negative human MDA-MB-231 cells assessed as reduction of Bcl-xL expression at 2 uM after 24 hrs by Western blotting analysis. The class given is cell-based.
Test [20] deals with MDA-MB-231. Put plainly: Induction of apoptosis in estrogen receptor-negative human MDA-MB-231 cells assessed as reduced procaspase-3 level at 2 uM after 24 hrs by Western blotting analysis. Format: functional, cell-based.
Test [21] deals with MDA-MB-231. Put plainly: Reduction in HDAC-3 nuclear expression in estrogen receptor-negative human MDA-MB-231 cells at 2 uM after 24 hrs by Western blotting analysis. Format: functional, cell-based.
For test [22], the system named is MDA-MB-231. The test can be described thus: Cell cycle arrest in estrogen receptor-negative human MDA-MB-231 cells assessed as decrease in CDK2 expression at 2 uM after 24 hrs by Western blotting analysis. The class given is functional, cell-based.

What is called IC50 is the concentration needed to halve the response being measured. For the compound `CCCCCCCCCCCCCCCCCC(=O)/C=C/C[C@@H]1CC=CC(=O)O1`, the result in the test with MDA-MB-231 [1], in the test with MDA-MB-231 [3], with MDA-MB-231 [10], with MDA-MB-231 [15], in the test with MDA-MB-231 [20] and in the test with MDA-MB-231 [21] was Active. The outcome in the test with MDA-MB-231 [22] was Active. In addition, the Activity in the test with MDA-MB-231 [2] amounted to 74%; in the test with MDA-MB-231 [6], 6.33%; in the test with MDA-MB-231 [7], 19.6%. In the test with MDA-MB-231 [4], the NF-kappaB activity inhibition result is “Active”. The values for the IC50 with MDA-MB-231 [5] and with MCF7 [13] were 2100 nM and 2320 nM, respectively. In addition, the inhibition entry with MDA-MB-231 [8], in the test with MDA-MB-231 [9], in the test with MDA-MB-231 [12], with MDA-MB-231 [14], in the test on MDA-MB-231 [16] and with MCF7 [17] was “Active” in each case. Moreover, in the test on MDA-MB-231 [19], the inhibition result was “Active”. Further, the result with MDA-MB-231 [11] was inactive. The fold change (FC) in the test with MDA-MB-231 [18] stood at 2.5.
